Test results: patent US11992473B2, “Compositions and methods for diagnosis and treatment of conditions related to the quality of aging and longevity” (Epitracker, Inc., priority 2018, dated 2024)

Key:
Format in all cases: cell-based, human
[1] = tested on: Venular endothelial cells, peripheral blood mononuclear cells; assay: BioMAP Diversity PLUS LPS system (Th1 type chronic inflammation, monocyte activation)
Description: (§1) This study examined activities of small molecules discovered in dolphin serum that had protective profiles against diseases of aging which can impact quality of life and longevity. These molecules were tested across 12 human primary cell-based systems as part of DiscoverX's BioMAP Diversity Plus program. These systems are designed to model complex human tissue and disease biology of the vasculature, skin, lung, and inflammatory tissues. Quantitative measurements of biomarker activities across this broad panel, along with comparative analysis of biological activities of known bioactive agents were used to predict and compare the efficacy and function of the four compounds. Compounds were tested at four concentrations (740 nm and 2.2, 6.7 and 20 μM).
(§2) BioMAP panels consist of human primary cell-based systems designed to model different aspects of the human body in an in vitro format. The 12 systems in the Diversity PLUS panel allow test agent characterization in an unbiased way across a broad set of systems modeling various human disease states. BioMAP systems are constructed with one or more primary cell types from healthy human donors, with stimuli (such as cytokines or growth factors) added to capture relevant signaling networks that naturally occur in human tissue or pathological conditions. Vascular biology is modeled in both a Th1 (3C system) and a Th2 (4H system) inflammatory environment, as well as in a Th1 inflammatory state specific to arterial smooth muscle cells (CASM3C system). Additional systems recapitulate aspects of the systemic immune response including monocyte-driven Th1 inflammation (LPS system) or T cell stimulation (SAg system), chronic Th1 inflammation driven by macrophage activation (lMphg system) and the T cell-dependent activation of B cells that occurs in germinal centers (BT system). The BE3C system (Th1) and the BF4T system (Th2) represent airway inflammation of the lung, while the MyoF system models myofibroblast-lung tissue remodeling. Lastly, skin biology is addressed in the KF3CT system modeling Th1 cutaneous inflammation and the HDF3CGF system modeling wound healing.
(§3) Each test agent generates a signature BioMAP profile that is created from the changes in protein biomarker readouts within individual system environments. Biomarker readouts (7-17 per system) are selected for therapeutic and biological relevance, are predictive for disease outcomes or specific drug effects and are validated using agents with known mechanism of action (MoA). Each readout is measured quantitatively by immune-based methods that detect protein (e.g., ELISA) or functional assays that measure proliferation and viability. BioMAP readouts are diverse and include cell surface receptors, cytokines, chemokines, matrix molecules and enzymes.
(§4) The Diversity PLUS panel allows test agent characterization in an unbiased way across a broad set of systems modeling various human disease states. These systems are designed to model complex human tissue and disease biology of the vasculature, skin, lung, and inflammatory tissues.
(§5) BioMAP systems are constructed with one or more primary cell types from healthy human donors, with stimuli (such as cytokines or growth factors) added to capture relevant signaling networks that naturally occur in human tissue or pathological conditions. Vascular biology is modeled in both a Th1 (3C system) and a Th2 (4H system) inflammatory environment, as well as in a Th1 inflammatory state specific to arterial smooth muscle cells (CASM3C system). Additional systems recapitulate aspects of the systemic immune response including monocyte-driven Th1 inflammation (LPS system) or T cell stimulation (SAg system), chronic Th1 inflammation driven by macrophage activation (lMphg system) and the T cell-dependent activation of B cells that occurs in germinal centers (BT system).

[2] = tested on: Venular endothelial cells, peripheral blood mononuclear cells; assay: BioMAP Diversity PLUS SAg system (T cell stimulation, Th1 type chronic inflammation); conditions: for Significant log10 reduction compared to nontreated controls: CD40: SAg system
Description: as §1, §2
as §3, with “enzymes. In total, the Diversity PLUS panel contains 148 biomarker readouts that capture biological changes that occur within the physiological context of the particular BioMAP system. Specific BioMAP activities have been correlated to in vivo biology, and multiparameter BioMAP profiles have been used to distinguish compounds based on MoA and target selectivity across diverse physiological systems.” for “enzymes.”
(§6) The Diversity PLUS panel allows test agent characterization in an unbiased way across a broad set of systems modeling various human disease states. These systems are designed to model complex human tissue and disease biology of the vasculature, skin, lung, and inflammatory tissues. Quantitative measurements of 148 biomarker activities across this broad panel, along with comparative analysis of biological activities from known bioactive agents, were used to predict and compare the efficacy and function of each selected compound at four concentrations (740 nm and 2.2, 6.7 and 20 μM). […]

[3] = tested on: Peripheral blood mononuclear cells, B cells; assay: BioMAP Diversity PLUS BT system (T cell dependent B cell activation)
Description: as §1, §2, §3, §4, §5

[4] = tested on: Bronchial epithelial cells; assay: BioMAP Diversity PLUS BE3C system (Th1 type lung inflammation)
Description: as §1, §2
as §3, with “enzymes. In total, the Diversity PLUS panel contains 148 biomarker readouts that capture biological changes that occur within the physiological context of the particular BioMAP system. Specific BioMAP activities have been correlated to in vivo biology, and multiparameter BioMAP profiles have been used to distinguish compounds based on MoA and target selectivity across diverse physiological systems.” for “enzymes.”
as §6

Dermal fibroblasts = assay: BioMAP Diversity PLUS HDF3CGF system (wound healing and matrix/tissue remodeling); conditions: HDF3CGF system
Description: as §1, §2, §3, §4, §5

[5] = tested on: Macrophages, venular endothelial cells; assay: BioMAP Diversity PLUS lMphg system (Th1 type chronic inflammation, macrophage activation); conditions: /Mphg system
Description: as §1, §2
as §3, with “enzymes. In total, the Diversity PLUS panel contains 148 biomarker readouts that capture biological changes that occur within the physiological context of the particular BioMAP system. Specific BioMAP activities have been correlated to in vivo biology, and multiparameter BioMAP profiles have been used to distinguish compounds based on MoA and target selectivity across diverse physiological systems.” for “enzymes.”
as §6

[6] = tested on: Bronchial epithelial cells, dermal fibroblasts; assay: BioMAP Diversity PLUS BF4T system (Th2 type lung inflammation)
Description: as §1, §2
as §3, with “enzymes. In total, the Diversity PLUS panel contains 148 biomarker readouts that capture biological changes that occur within the physiological context of the particular BioMAP system. Specific BioMAP activities have been correlated to in vivo biology, and multiparameter BioMAP profiles have been used to distinguish compounds based on MoA and target selectivity across diverse physiological systems.” for “enzymes.”
as §6

Lung fibroblasts = assay: BioMAP Diversity PLUS MyoF system (myofibroblast differentiation and tissue remodeling)
Description: as §1, §2
as §3, with “enzymes. In total, the Diversity PLUS panel contains 148 biomarker readouts that capture biological changes that occur within the physiological context of the particular BioMAP system. Specific BioMAP activities have been correlated to in vivo biology, and multiparameter BioMAP profiles have been used to distinguish compounds based on MoA and target selectivity across diverse physiological systems.” for “enzymes.”
as §6

**Q.** How did the “Significant log10 reduction compared to nontreated controls: Secreted prostaglandin E2 (PGE2)” value (“Significant log10 reduction … (PGE2)” below) ([1]; LPS system, 0.7 μM) turn out when C=CCCCCCCCCC(=O)O [10-undecanoate (C11:1n1), 10-undecanoate] was run?
**A.** −0.11 log10

**Q.** And the “Significant log10 reduction … (PGE2)” value ([1]; LPS system, 2.2 μM)?
**A.** −0.08 log10

**Q.** What about the “Significant log10 reduction … (PGE2)” value ([1]; LPS system, 6.7 μM) of the same compound?
**A.** −0.20 log10

**Q.** What about the “Significant log10 reduction compared to nontreated controls: CD40” value (from here on “Significant log10 reduction … CD40”) ([1]; LPS system, 20.0 μM) of the same compound?
**A.** −0.11 log10

**Q.** What about the “secretion of prostaglandin E2 (PGE2)” value ([1]; human cell system mimicking T-cell and monocyte driven chronic inflammation and cardiovascular diseases (FIG. 4)) of the same compound?
**A.** lowered

**Q.** And the “Significant log10 reduction … CD40” value ([2]; 0.7 μM)?
**A.** −0.07 log10

**Q.** And the “Significant log10 reduction … CD40” value ([2]; 2.2 μM)?
**A.** −0.14 log10

**Q.** What about the “Significant log10 reduction … CD40” value ([2]; 6.7 μM) of the same compound?
**A.** −0.09 log10

**Q.** What about the CD40 ([2]; human cell system mimicking T-cell driven chronic inflammation and autoimmune diseases, 740 nm, 2.2 μM, and 6.7 μM (FIG. 3)) of the same compound?
**A.** lowered

**Q.** What about the T cell proliferation ([2]; human cell system mimicking T-cell driven chronic inflammation and autoimmune diseases, concentrations ranging from 740 nm to 6.7 μM (FIG. 2)) of the same compound?
**A.** decreased

**Q.** And the “Significant log10 reduction compared to nontreated controls: Secreted interleukin 17A (IL-17A)” value (“Significant log10 reduction … (IL-17A)” for short) ([3]; BT system, 2.2 μM)?
**A.** −0.25 log10

**Q.** What about the “Significant log10 reduction … (IL-17A)” value ([3]; BT system, 20.0 μM) of the same compound?
**A.** −0.20 log10

**Q.** What about the “Significant log10 reduction compared to nontreated controls: Secreted tumor necrosis factor alpha (TNFα)” value ([3]; BT system, 20.0 μM) of the same compound?
**A.** −0.12 log10

**Q.** And the “interleukin 17A (IL-17A)” value ([3]; human cell system mimicking asthma, autoimmunity and allergies (FIG. 5))?
**A.** lowered

**Q.** What about the “Significant log10 reduction compared to nontreated controls: Tissue plasminogen activator (tPA)” value (shortened to “Significant log10 reduction … (tPA)”) ([4]; 2.2 μM) of the same compound?
**A.** −0.08 log10

**Q.** What about the “Significant log10 reduction … (tPA)” value ([4]; 6.7 μM) of the same compound?
**A.** −0.11 log10

**Q.** What about the “Significant log10 reduction … (tPA)” value ([4]; 20.0 μM) of the same compound?
**A.** −0.12 log10

**Q.** And the “Significant log10 reduction compared to nontreated controls: Macrophage colony-stimulating factor (M-CSF)” value (Dermal fibroblasts; 0.7 μM)?
**A.** −0.11 log10

**Q.** What about the “Significant log10 reduction compared to nontreated controls: Macrophage colony-stimulating factor (M-CSF)” value (Dermal fibroblasts; 2.2 μM) of the same compound?
**A.** −0.07 log10

**Q.** What about the “Significant log10 reduction compared to nontreated controls: Secreted interleukin 10 (IL-10)” value ([5]; 20.0 μM) of the same compound?
**A.** −0.21 log10

**Q.** For “lignoceroylcarnitine [Lignoceroylcarnitine (C24)]”, which “Significant log10 reduction compared to nontreated controls: B cell proliferation” value ([3]; BT system, 0.7 μM) is on record?
**A.** −0.15 log10

**Q.** And the “Significant log10 reduction compared to nontreated controls: B cell proliferation” value ([3]; BT system, 2.2 μM)?
**A.** −0.09 log10

**Q.** And the “Significant log10 reduction compared to nontreated controls: Secreted tumor necrosis factor alpha (TNFα)” value ([3]; BT system, 2.2 μM)?
**A.** −0.10 log10

**Q.** And the “Significant log10 reduction compared to nontreated controls: B cell proliferation” value ([3]; BT system, 6.7 μM)?
**A.** −0.09 log10

**Q.** What about the “Significant log10 reduction compared to nontreated controls: Secreted interleukin 2 (IL-2)” value ([3]; BT system, 6.7 μM) of the same compound?
**A.** −0.11 log10

**Q.** What about the “Significant log10 reduction compared to nontreated controls: B cell proliferation” value ([3]; BT system, 20.0 μM) of the same compound?
**A.** −0.07 log10

**Q.** And the “Significant log10 reduction compared to nontreated controls: Secreted interleukin 6 (IL-6)” value ([3]; BT system, 20.0 μM)?
**A.** −0.13 log10

**Q.** What about the “Significant log10 reduction … (IL-17A)” value ([3]; BT system, 20.0 μM) of the same compound?
**A.** −0.25 log10

**Q.** What about the “Significant log10 reduction compared to nontreated controls: Keratin 8/18” value (“Significant log10 reduction … Keratin 8/18” for short) ([6]; 0.7 μM) of the same compound?
**A.** −0.07 log10

**Q.** What about the “Significant log10 reduction … Keratin 8/18” value ([6]; 2.2 μM) of the same compound?
**A.** −0.07 log10

**Q.** What about the “Significant log10 reduction … Keratin 8/18” value ([6]; 6.7 μM) of the same compound?
**A.** −0.09 log10

**Q.** What about the “Significant log10 reduction … Keratin 8/18” value ([6]; 20.0 μM) of the same compound?
**A.** −0.11 log10

**Q.** And the “Significant log10 reduction compared to nontreated controls: Interferon-inducible T cell alpha chemoattractant (I-TAC)/CXCL11” value ([4]; 0.7 μM)?
**A.** −0.05 log10

**Q.** What about the “Significant log10 reduction compared to nontreated controls: Interferon-inducible T cell alpha chemoattractant (I-TAC)/CXCL11” value ([4]; 2.2 μM) of the same compound?
**A.** −0.12 log10

**Q.** What about the “Significant log10 reduction compared to nontreated controls: Alpha smooth muscle actin (αSMA)” value (“Significant log10 reduction … (αSMA)” for short) (Lung fibroblasts; 0.7 μM) of the same compound?
**A.** −0.08 log10

**Q.** What about the “Significant log10 reduction … (αSMA)” value (Lung fibroblasts; 2.2 μM) of the same compound?
**A.** −0.13 log10

**Q.** And the “Significant log10 reduction … (αSMA)” value (Lung fibroblasts; 6.7 μM)?
**A.** −0.18 log10

**Q.** What about the “Significant log10 reduction … (αSMA)” value (Lung fibroblasts; 20.0 μM) of the same compound?
**A.** −0.20 log10

**Q.** What about the “Significant log10 reduction compared to nontreated controls: Monocyte chemoattractant protein 1 (MCP-1)” value (“Significant log10 reduction … (MCP-1)” for short) ([5]; 2.2 μM) of the same compound?
**A.** −0.29 log10

**Q.** And the “Significant log10 reduction … (MCP-1)” value ([5]; 6.7 μM)?
**A.** −0.16 log10

**Q.** And the “Significant log10 reduction … (MCP-1)” value ([5]; 20.0 μM)?
**A.** −0.11 log10
